Test results as given in patent US20100286229A1, “Modulation of Androgen Receptor for Treatment of Prostate Cancer” (priority 2005, published 2010).
Entries after “also recorded” stand apart in the source; their conditions may differ.

Tests used:
Assay type in all cases: cell-based, human
AR mRNA [1] = assay: ARE-Luc reporter cotransfection with anti-AR shRNA constructs; conditions: for ARE-Luc reporter activity: C4-2 cells, control shRNAs against GFP or FasL; for ARE-Luc reporter activity on endogenous AR: LNCaP cells, 48 h, control shGFP, shFasL
Source text: Based on what was known from clinical oncology and AR mutation databases we hypothesized that complete inhibition of AR function would be toxic for both androgen-dependent and androgen-refractory prostate cancer cells, because prostate cancer cells very rarely lose AR signaling during cancer progression. To completely block AR activity in these cells we used an RNAi approach (FIG. 11). We synthesized several shRNA constructs targeting different portions of AR mRNA using a loop model (see Example 4 above).
Reporter assays were performed by transiently transfecting cells with pARE-Luc plasmid and pcDNA-3.1 hygro plasmids (empty or AR), or plasmids with shRNAs in different proportions. Transfection efficiency was normalized by citransfection of pCMV-LacZ plasmid or pEGFP-mito (Clontech). Reporter activity was measured using a Luciferase Assay System (Promega) at 48 h.

[2] = tested on: CaP cells expressing endogenous AR; assay: Growth after retroviral anti-AR shRNA transduction and hygromycin selection, CaP cells expressing endogenous AR; conditions: retroviral vector, hygromycin selection; for growth of CaP cells expressing endogenous AR: all tested CaP cells, control anti-GFP
Source text: (§1) We confirmed that inhibition of AR signaling is growth suppressive for androgen-insensitive versions of CaP (FIG. 5). Based on what is known from clinical oncology and AR mutation databases, we hypothesized that complete inhibition of AR function would be deleterious for both androgen-dependent and androgen refractory prostate cancer cells since CaP cells very rarely loose AR signaling during progression. To estimate the dependency of prostate cancer cells on the expression of AR, we transduced them with retroviral vector expressing anti-AR siRNA with subsequent selection on hygromycin. Control cells were transduced with anti-GFP siRNA vector. Transduction efficiency was estimated in AR-negative cells, DU145.
We also estimated the dependency of prostate cancer cells on the expression of AR by transducing cells with a retroviral vector expressing anti-AR shRNA, followed by selection on hygromycin (FIG. 12). Control cells were transduced with anti-GFP shRNA vector; transduction efficiency was estimated on AR negative cells (DU145) transduced with the same viruses.
For the experiments in FIG. 12, retroviral packaging and transduction were performed as follows. Briefly, Ampho cells (Clontech) were transfected with retroviral expression vector. Medium with virus was collected at 48 h and immediately transferred onto the target cells. 8 μg/ml of polybrene (Sigma) was added to transduced cells. 24 h later, the medium was changed with fresh medium containing the appropriate antibiotic for selecting transduced cells. 10-14 days later, after complete death of control untransduced cells, the number of colonies was quantified, or cells were used for further experiments. Retroviral shRNA vectors were generated by inserting the H1 promoter and a cassette for cloning of shRNA into the right LTR of pLPCHygro plasmid (Clontech).
For the experiment in FIG. 12B, the number of colonies on each plate was counted and divided by number of colonies of AR-negative DU145 cells. The number of colonies of cells transduced with shRNA against GFP was set as 1. DU145 cells were obtained from ATCC.

LNCaP cells = assay: Growth after retroviral anti-AR shRNA transduction and hygromycin selection, LNCaP; conditions: retroviral vector, hygromycin selection, control anti-GFP
Source text: as §1
(§2) We also estimated the dependency of prostate cancer cells on the expression of AR by transducing cells with a retroviral vector expressing anti-AR shRNA, followed by selection on hygromycin (FIG. 12). […]
(§3) For the experiments in FIG. 12, retroviral packaging and transduction were performed as follows. […] 10-14 days later, after complete death of control untransduced cells, the number of colonies was quantified, or cells were used for further experiments. […]
(§4) For the experiment in FIG. 12B, the number of colonies on each plate was counted and divided by number of colonies of AR-negative DU145 cells. […]

C4-2 cells = assay: Growth after retroviral anti-AR shRNA transduction and hygromycin selection, C4-2; conditions: retroviral vector, hygromycin selection, control anti-GFP
Source text: as §1, §2, §3, §4

AR mRNA [3] = assay: ARE-Luc activity with siRNAs against translated and untranslated regions of AR mRNA; conditions: C4-2 cells, endogenous AR
Source text: We next eliminated expression of the endogenous ligand-dependent AR in a way that would not affect the expression of the ARΔLBD mutant. To achieve this, we generated a series of lentiviral vectors expressing siRNA's against untranslated regions of AR mRNA that are missing in the generated ARΔLBD-expressing constructs. We tested their activity in C4-2 prostate cancer cells that have endogenous AR and in H1299 cells expressing only exogenous AR from the transduced construct. While all siRNA's against translated and untranslated regions of AR were active in inhibition of ARE-Luc activity in C4-2 cells, only siRNA's against translated regions were active in H1299 cells (FIG. 6).

endogenous AR = assay: Knock down of endogenous AR in CaP cells infected with lentiviral siAR6 and ARΔLBD; conditions: simultaneous infection with siAR6 and ARΔLBD lentiviral vectors
Source text: To generate completely ligand independent CaP cells, we simultaneously infected cells with lentiviral vectors expressing siAR6 and ARΔLBD.

AR [4] = assay: ARE-Luc (AR-dependent luciferase) reporter activity in CaP cells in CSS medium with DHT
CWR22R cells = assay: Cell growth by methylene blue staining in CSS medium with DHT, CWR22R; conditions: 10 nM DHT
Hela cells = assay: Growth of AR-negative Hela cells with DHT (data not shown)
p21 = p21 protein level in lysates of LNCaP cells treated with DHT; conditions: 1 nM and 10 nM DHT compared to 0 nM, 0.1 nm DHT or FBS
Source text: Thus increased activity of AR due to its overexpression or hyper-stimulation with ligand inhibits cell growth, possibly due to induction of p21.

AR overexpressing cells = assay: Growth of cells transduced with AR lentivirus in CSS with or without DHT; conditions: 0.3 nM DHT
Method: (§5) Cells were plated in 6 well plates at 10^5/well. The next day, cells were transduced with concentrated GFP or AR lentiviruses, yielding 50-100% transduction efficiency. […] The medium was changed every 48 h. Cells were collected for Western blotting and luciferase assays at different time points or fixed and stained with methylene blue on day 8 after transduction.
(§6) The growth of cells overexpressing AR, cultured in CSS with no DHT, was not different from GFP expressing cells. Thus, this growth reflects the general sensitivity of certain type of cells to the presence of steroids in medium (FIG. 13A).

AR [5] = assay: AR protein level in cells transduced with AR-lentivirus, CSS medium with or without DHT (Western blotting); conditions: DHT-containing media vs CSS without DHT
Method: as §5, §6

proteasomes = assay: AR protein level in HeLa cell variants treated with proteasome inhibitor PS341

AR3: siRNA/shRNA against AR, sequence TCTCTGTGCAAGTGCCCAA, SEQ ID NO 5, target 3814-3832 (listed as DNA, chemistry not given here)
ARE-Luc reporter activity (AR mRNA [1]): inhibit ARE-Luc reporter activity | ARE-Luc reporter activity on endogenous AR (AR mRNA [1]): inhibit ARE-Luc reporter activity | ARE-Luc reporter activity on endogenous AR (AR mRNA [1]; listed as shAR3): did not completely block AR transcription | growth of CaP cells expressing endogenous AR [2]: no inhibitory activity | growth-inducing property on AR expressing CaP cells [2]: some growth-inducing property

AR1: siRNA/shRNA against AR, sequence GCTCAAGGATGGAAGTGCA, SEQ ID NO 3, target 1108-1126 (listed as DNA, chemistry not given here)
ARE-Luc reporter activity (AR mRNA [1]): inhibit ARE-Luc reporter activity | ARE-Luc reporter activity on endogenous AR (AR mRNA [1]): inhibit ARE-Luc reporter activity | ARE-Luc reporter activity on endogenous AR (AR mRNA [1]; listed as shAR1): maximal activity | cell growth (LNCaP cells): inhibited the growth | cell growth (C4-2 cells): inhibited the growth | growth of CaP cells expressing endogenous AR [2]: growth inhibitory effect; also recorded: inhibits growth

AR6: siRNA against untranslated region of AR mRNA, sequence GTCAGGTCTTCAGTAGCCA, SEQ ID NO 6, target 688-706 (listed as DNA, chemistry not given here)
inhibition of ARE-Luc activity (AR mRNA [3]): most effective | knock down of endogenous AR (endogenous AR): nearly complete knock down of endogenous AR

AR2: siRNA/shRNA against AR, sequence GCTGCTCCGCTGACCTTAA, SEQ ID NO 4, target 1642-1660 (listed as DNA, chemistry not given here)
ARE-Luc reporter activity (AR mRNA [1]): inhibit ARE-Luc reporter activity | ARE-Luc reporter activity on endogenous AR (AR mRNA [1]): inhibit ARE-Luc reporter activity | ARE-Luc reporter activity on endogenous AR (AR mRNA [1]; listed as shAR2): did not completely block AR transcription | growth of CaP cells expressing endogenous AR [2]: no inhibitory activity

C[C@]12CCC(=O)C[C@@H]1CC[C@@H]1[C@@H]2CC[C@]2(C)[C@@H](O)CC[C@@H]12 [DHT, dehydrotestosterone]
reporter induction by DHT (AR [4]; CWR22R and 22Rv1 cells): up to 3.5 fold | ARE-Luc reporter activation by DHT (AR [4]; CWR22R cells with shAR and ARDLBD): do not respond | reporter response to addition of DHT (AR [4]; LNCaP, C4-2 and CWR22R cells, CSS containing 0-10 nm DHT): reporter activation | growth at high doses of DHT (CWR22R cells): minor growth suppressing effect | growth in response to DHT (Hela cells): not affected | level of p21 (p21): higher | growth of AR overexpressing cells compared to GFP expressing control (AR overexpressing cells): suppression of growth | AR levels in cells transduced with AR-lentivirus (AR [5]): reduced AR levels to those observed prior transduction

CC(C)C[C@H](NC(=O)[C@H](Cc1ccccc1)NC(=O)c1cnccn1)B(O)O [PS341]
ARΔLBD protein level (proteasomes; HeLa cells with ARΔLBD): remained unchanged | wtAR protein level (proteasomes; HeLa cells with wtAR): increased; also recorded: accumulation of wild type AR protein
